Counter-ions that a name gives are not always drawn.

In one experiment the target is GSK-3α/β. Put plainly: GSK-3α/β kinase assay. It is filed as biochemical, pig. Conditions: 15 μM ATP, 30° C., buffer A, GS-1 substrate.
The target of a further experiment is CDK1/cyclin B. Put plainly: CDK1/cyclin B kinase assay. It is filed as biochemical, starfish (Marthasterias glacialis). Conditions: 15 μM ATP, 30° C., histone H1 substrate. On the procedure:
Homogenization buffers: 60 mM β-glycerophosphate, 15 mM p-nitrophenyl phosphate, 25 mM Mops (pH 7.2), 15 mM EGTA, 15 mM MgCl2, 1 mM DTT, 1 mM sodium vanadate, 1 mM NaF, 1 mM phenyl phosphate, 10 μg leupeptin/ml, 10 μg aprotinin/ml, 10 μg soybean trypsin inhibitor/ml and 100 μM benzamidine.
(§1) Buffer C: 60 mM β-glycerophosphate, 15 mM p-nitrophenyl phosphate, 25 mM Mops (pH 7.2), 5 mM EGTA, 15 mM MgCl2, 1 mM DTT, 1 mM sodium vanadate, 1 mM phenyl phosphate, 10 μg leupeptin/ml, 10 μg aprotinin/ml and 100 μM benzamidine.
(§2) Controls were performed with appropriate dilutions of dimethyl sulfoxide.
(§3) ATP (3000 Ci/mmol; 10 mCi/ml) in a final volume of 30 μl. After incubation for 30 minutes at 30° C., aliquotes of 25 μl of the supernatant were spotted onto Whatman P81 phosphocellulose paper filters and, 20 seconds later, the filters were washed five times (for at least five minutes each time) in a solution of 10 ml of phosphoric acid/liter of water. The wet filters were subjected to counting in the presence of an ACS scintillation fluid from Amersham. CDK2/cyclin A (human, recombinant, expressed in insect cells) was assayed as described for CDK1/cyclin B. CDK5/p25 was reconstituted by mixing equal amounts of recombinant mammalian CDK5 and p25 expressed in E. coli as a GST (glutathione-S-transferase) fusion protein and purified by affinity chromatography on glutathione-agarose (p25 is a truncated version of p35, the 35 kDa CDK5 activator). […] DYRK1A (human, recombinant, expressed in E. coli as a GST fusion protein) was purified on glutathione-agarose, assayed as described for CDK1/cyclin B with myelin basic protein (1 mg/ml) as substrate.

The next experiment concerns the target T1, CDK2/cyclin A (Homo sapiens, UniProt P24941).
T1 construct: host or cells: insect cells
Put plainly: CDK2/cyclin A kinase assay. Conditions: 15 μM ATP, 30° C., histone H1 substrate. The format is biochemical. On the procedure: as §1, §2, §3

The target in another experiment is T2, CDK9/cyclin T (Homo sapiens, UniProt P50750).
T2 construct: host or cells: insect cells
T2 sequence (P50750 whole entry): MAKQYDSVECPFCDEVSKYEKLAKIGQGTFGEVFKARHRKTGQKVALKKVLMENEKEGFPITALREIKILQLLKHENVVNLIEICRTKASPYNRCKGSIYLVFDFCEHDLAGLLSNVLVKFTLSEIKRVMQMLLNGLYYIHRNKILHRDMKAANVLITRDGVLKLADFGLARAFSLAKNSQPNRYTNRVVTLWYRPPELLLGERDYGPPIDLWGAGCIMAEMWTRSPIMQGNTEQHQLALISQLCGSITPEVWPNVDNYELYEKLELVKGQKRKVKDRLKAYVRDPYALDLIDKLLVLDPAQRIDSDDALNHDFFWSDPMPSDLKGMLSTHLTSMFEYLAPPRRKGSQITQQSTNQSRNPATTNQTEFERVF
T2 sequence (O60563 whole entry partner): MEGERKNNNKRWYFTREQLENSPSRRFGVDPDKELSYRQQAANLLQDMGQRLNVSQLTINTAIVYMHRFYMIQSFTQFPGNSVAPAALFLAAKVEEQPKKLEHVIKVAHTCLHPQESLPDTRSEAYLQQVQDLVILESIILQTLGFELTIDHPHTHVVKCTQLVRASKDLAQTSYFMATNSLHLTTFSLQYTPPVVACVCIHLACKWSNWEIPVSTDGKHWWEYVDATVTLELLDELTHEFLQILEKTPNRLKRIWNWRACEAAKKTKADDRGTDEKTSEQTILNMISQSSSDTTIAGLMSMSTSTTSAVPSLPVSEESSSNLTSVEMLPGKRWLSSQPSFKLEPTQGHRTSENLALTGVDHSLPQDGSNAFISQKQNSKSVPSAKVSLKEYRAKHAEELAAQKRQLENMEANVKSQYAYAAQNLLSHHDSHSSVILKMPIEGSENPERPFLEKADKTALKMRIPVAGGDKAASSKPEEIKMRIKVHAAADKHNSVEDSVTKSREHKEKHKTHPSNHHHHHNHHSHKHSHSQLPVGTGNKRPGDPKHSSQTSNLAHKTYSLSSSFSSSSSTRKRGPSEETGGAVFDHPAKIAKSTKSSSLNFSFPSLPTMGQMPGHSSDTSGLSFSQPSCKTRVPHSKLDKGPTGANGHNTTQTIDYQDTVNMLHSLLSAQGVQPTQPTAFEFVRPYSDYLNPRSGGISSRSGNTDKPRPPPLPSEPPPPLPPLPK
The experiment is described as follows: CDK9/cyclin T kinase assay. It is filed as biochemical. To be noted: 15 μM ATP, 30° C., pRB fragment substrate.

Another experiment has as its target DYRK1A (Homo sapiens, UniProt Q13627). Put plainly: DYRK1A kinase assay. The format is biochemical. To be noted: 15 μM ATP, 30° C., myelin basic protein substrate. On the procedure:
(§4) The blank values were subtracted and the activities calculated as μmoles of phosphate incorporated per 10 minutes of incubation. […] Controls were performed with appropriate dilutions of dimethyl sulfoxide.
as §3

In experiment [1] the test system is SH-SY5Y human neuroblastoma cells. The experiment is described as follows: SH-SY5Y cell viability (MTS reduction). It is filed as cell-based. To be noted: SH-SY5Y cell line, cell viability by MTS. On the procedure:
A Cell Titer 96® kit containing the MTS reagent was purchased from Promega (Madison, Wis., USA). The protease inhibitor cocktail came from Roche and the fetal calf serum (FCS) came from Invitrogen. The reagents not listed came from Sigma, unless otherwise indicated.
The SH-SY5Y human neuroblastoma cell line was grown in a DMEM medium with L-glutamine from Invitrogen (Cergy Pontoise, France), antibiotics and 10% by volume of FCS from Invitrogen. The general culture conditions were a 5% CO2 atmosphere and a temperature of 37° C. The culture plates and other disposable plastic tools were supplied by Corning (Corning, N.Y., USA). The treatments with the compounds of the invention were carried out on cultures in exponential growth over time, and indicated concentrations. The control experiments were carried out also using suitable dilutions of DMSO.
The cell viability was determined by measuring the reduction of 3-(4,5-dimethylthiazol-2-yl)-5-(3-carboxymethoxyphenyl)-2-(4-sulfophenyl)-2H-tetrazolium (MTS).

Another experiment concerns the target CK1δ/ε. Put plainly: CK1δ/ε kinase assay. To be noted: 15 μM ATP, 30° C., CK1-specific peptide substrate. The format is biochemical, pig. On the procedure:
as §4, §3

In the next experiment the target is CDK5/p25 (Homo sapiens, UniProt Q00535). The experiment is described as follows: CDK5/p25 kinase assay. To be noted: 15 μM ATP, 30° C., histone H1 substrate. The format is biochemical, mammalian. Here is the method:
as §1, §2, §3

Experiment [2] deals with Human chronic lymphoid leukemia (B-CLL) lymphocytes. The experiment is described as follows: B-CLL cell apoptosis (annexin V / propidium iodide, flow cytometry). It is filed as cell-based. Conditions: B-CLL cells from patients. On the procedure: The CLL cells were isolated from heparinized blood of untreated patients after informed consent.
The mononuclear cells were isolated by centrifugation on a Lymphosep density gradient (Biowest). […] When the percentage of CD19+/CD5+ cells was less than 90%, the B lymphocytes were enriched using the kit II for B-cell enrichment by immunomagnetic depletion of the monocytes, NK cells, granulocytes and T lymphocytes (Miltenyi Biotech).
After incubation, the B-CLL cells were harvested, washed in PBS and resuspended in 100 μl of 1× binding buffer containing FITC-conjugated annexin V and propidium iodide (Beckman Coulter Apoptosis Detection Kit). After incubation for 10 min on ice, the cells were analyzed by flow cytometry and the percentage of cells undergoing apoptosis was determined.

For the next experiment, the system named is the four kinases assayed. The experiment is described as follows: Tests on the four kinases assayed (comparison of enantiomers 34 and 31). It is filed as biochemical. Conditions: 34 versus 31. Here is the method:
The kinases were assayed in buffer A or buffer C, at 30° C., at a final ATP concentration of 15 μM. The blank values were subtracted and the activities calculated as μmoles of phosphate incorporated per 10 minutes of incubation. The activities are usually expressed as % (percentage) of maximum activity, i.e. in the absence of inhibitors. Controls were performed with appropriate dilutions of dimethyl sulfoxide.
[…]. J. Biochem. 1997, 243, 527-536. The kinase activity was assayed in buffer C, with 1 mg of histone H1/ml, in the presence of 15 μM of [γ-^33P] ATP (3000 Ci/mmol; 10 mCi/ml) in a final volume of 30 μl. After incubation for 30 minutes at 30° C., aliquotes of 25 μl of the supernatant were spotted onto Whatman P81 phosphocellulose paper filters and, 20 seconds later, the filters were washed five times (for at least five minutes each time) in a solution of 10 ml of phosphoric acid/liter of water. The wet filters were subjected to counting in the presence of an ACS scintillation fluid from Amersham. […]

CDK5/p25, sequence (Q00535 whole entry, species assumed): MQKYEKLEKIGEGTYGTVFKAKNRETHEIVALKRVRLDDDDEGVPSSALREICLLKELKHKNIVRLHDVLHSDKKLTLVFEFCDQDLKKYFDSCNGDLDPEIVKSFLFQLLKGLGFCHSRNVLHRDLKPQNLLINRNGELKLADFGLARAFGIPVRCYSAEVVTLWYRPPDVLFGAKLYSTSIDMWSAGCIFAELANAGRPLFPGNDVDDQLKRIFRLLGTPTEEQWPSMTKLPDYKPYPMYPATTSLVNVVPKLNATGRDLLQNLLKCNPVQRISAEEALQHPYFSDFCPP
CDK5/p25, sequence (Q15078 99-307 partner limits assumed, species assumed): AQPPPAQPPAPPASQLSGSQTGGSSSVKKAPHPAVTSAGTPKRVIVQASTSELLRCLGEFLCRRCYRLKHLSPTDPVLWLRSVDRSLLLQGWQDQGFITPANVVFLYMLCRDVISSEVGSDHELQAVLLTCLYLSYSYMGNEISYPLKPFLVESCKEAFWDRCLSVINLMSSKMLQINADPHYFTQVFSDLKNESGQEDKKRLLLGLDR

The IC50 is the concentration needed to halve the response being measured. Higher therefore signals weaker potency. With `CC[C@H](CO)Nc1nc(NCc2ccc(-c3ccccc3)cc2)n2ncc(C(C)C)c2n1` [Compound 1, (R)-2-(1-hydroxybut-2-ylamino)-8-isopropyl-4-(4-phenylbenzylamino)pyrazolo[1,5-a]-1,3,5-triazine], the IC50 against GSK-3α/β is greater than 10000 nM; at CDK1/cyclin B it was 180 nM; against CDK2/cyclin A, 220 nM; against CDK9/cyclin T, 93 nM; at DYRK1A, 2200 nM; in experiment [1] (Homo sapiens) it was 430 nM. Moreover, the IC50 against CK1δ/ε amounted to 210 nM; against CDK5/p25 it was 180 nM; in experiment [2] (Homo sapiens) it was 189 nM.

Regarding `CC[C@H](CO)Nc1nc(NCc2ccccc2)n2ncc(C(C)C)c2n1` [N-&-N1, reference compound], the IC50 against GSK-3α/β amounted to 11000 nM; on CDK1/cyclin B, 90 nM; against DYRK1A, 1300 nM; in experiment [1] (Homo sapiens) it was 2600 nM; at CK1δ/ε, 1200 nM; in experiment [2] (Homo sapiens) it was 1420 nM.

With `CC[C@H](CO)Nc1nc(NCc2ccc(-c3ccccn3)cc2)n2ncc(C(C)C)c2n1` [Compound 3, Fumarate salt of (R)-2-(1-hydroxybut-2-ylamino)-8-isopropyl-4-[4-(pyridin-2-yl)benzylamino]pyrazolo[1,5-a]-1,3,5-triazine], the IC50 against GSK-3α/β was determined as 3100 nM; against CDK1/cyclin B, 16 nM; on CDK2/cyclin A it was 21 nM; against CDK9/cyclin T, 31 nM; on DYRK1A, 2200 nM; in experiment [1], 59 nM. The half-inhibitory concentration (IC50) against CK1δ/ε turned out to be 130 nM; on CDK5/p25, 18 nM; in [2] it was 32 nM.

For `CC[C@H](CO)Nc1nc(NCc2ccc(-c3ccccn3)cc2)n2ncc(C(C)C)c2n1` [Compound 2, (R)-2-(1-hydroxybut-2-ylamino)-8-isopropyl-4-[4-(pyridin-2-yl)benzylamino]pyrazolo[1,5-a]-1,3,5-triazine], the IC50 at GSK-3α/β was 4000 nM; against CDK1/cyclin B, 23 nM; against CDK2/cyclin A, 28 nM; against CDK9/cyclin T it was 73 nM; against DYRK1A, 1800 nM; in [1] (Homo sapiens), 44 nM. Moreover, the IC50 at CK1δ/ε amounted to 210 nM; at CDK5/p25, 40 nM; in experiment [2] (Homo sapiens), 32 nM.

`CC[C@@H](CO)Nc1nc(NCc2ccc(-c3ccccn3)cc2)n2ncc(C(C)C)c2n1` [Compound 5, Fumarate salt of (S)-2-(1-hydroxybut-2-ylamino)-8-isopropyl-4-[4-(pyridin-2-yl)benzylamino]pyrazolo[1,5-a]-1,3,5-triazine]: the IC50 was found to be 3500 nM on GSK-3α/β; 23 nM against CDK1/cyclin B; 16 nM at CDK2/cyclin A; 30 nM at CDK9/cyclin T; 500 nM at DYRK1A; 80 nM in experiment [1]. For the same molecule, the IC50 against CK1δ/ε is 210 nM; against CDK5/p25, 31 nM.

Turning to `CCc1cnn2c(NCc3ccc(-c4ccccn4)cc3)nc(NC[C@H](O)CO)nc12` [Compound 34, (S)-2-(1,2-dihydroxypropan-3-ylamino)-8-ethyl-4-[4-(pyridin-2-yl)benzylamino]pyrazolo[1,5-a]-1,3,5-triazine], the IC50 against GSK-3α/β was 530 nM; on DYRK1A it was 420 nM; in [1] (Homo sapiens), less than 30 nM; at CK1δ/ε, 100 nM; on CDK5/p25 it was 10 nM. The “activity compared with enantiomer on the four kinases assayed” value with the four kinases assayed is reported as “more active than the derivative 31”.
